Assay results from patent publication US11639346B2, “Quinazoline derivatives as modulators of mutant KRAS, HRAS or NRAS” (Araxes Pharma LLC, priority 2017, dated 2023).

Molecular target: T1, KRAS G12C 1-169, his-tagged protein, GDP-loaded (Homo sapiens, UniProt P01116, G12C)
T1 construct: KRAS G12C 1-169, his-tagged protein, GDP-loaded; His tag
Assay: Biochemical assay: covalent modification of KRAS G12C measured by mass spectrometry
Format: binding
Conditions: after a 10 minute incubation period
Protocol: Test compounds are prepared as 10 mM stock solutions in DMSO (Fisher cat #BP-231-100). KRAS G12C 1-169, his-tagged protein, GDP-loaded is diluted to 2 μM or 0.5 μM in buffer (20 mM Hepes, 150 mM NaCl, 1 mM MgCl2). Compounds are tested for activity as follows:
Compounds are diluted to 50× final test concentration in DMSO in 96-well storage plates. Compound stock solutions are vortexed before use and observed carefully for any sign of precipitation. […] The plate is then resealed with aluminum seal and stored on dry ice until analyzed as described below.
The above described assays are analyzed by mass spectrometry according to one of the following two procedures: […]
After another 30 minute equilibration time, a blank batch (i.e., buffer) is run to ensure equipment is operating properly. […] The method is then run and masses of each individual well recorded. […]
The masses and peak intensities of KRAS G12C protein species are measured using a Dionex RSLCnano system (Thermo Scientific) connected to a Q Exactive Plus mass spectrometer (Thermo Scientific). […]
The mass spectrometer is operated in profile mode at a resolution of 17500, 5 microscans, using 50 msec max injection time and an AGC target of 1×10^6, and a full mass range from 800-1850 m/z is recorded. […]

T1 sequence (P01116 1-169 isoform P01116-2 G12C): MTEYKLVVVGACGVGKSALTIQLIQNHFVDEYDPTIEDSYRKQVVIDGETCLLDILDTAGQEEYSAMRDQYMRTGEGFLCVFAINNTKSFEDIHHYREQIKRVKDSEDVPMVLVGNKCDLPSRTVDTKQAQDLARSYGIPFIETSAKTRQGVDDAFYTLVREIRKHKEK

SMILES: C=CC(=O)N1C[C@H](C)N(c2nc(C3CN(C(C)C)C3)nc3c(F)c(-c4c(O)cccc4F)c(Cl)cc23)C[C@H]1C (atropisomer, axis not shown) [Compound 1, 1-((2R,5S)-4-((S)-6-chloro-8-fluoro-7-(2-fluoro-6-hydroxyphenyl)-2-(1-isopropylazetidin-3-yl)quinazolin-4-yl)-2,5-dimethylpiperazin-1-yl)prop-2-en-1-one]
- binding to KRAS G12C (modification percentage): greater than 75%
